Reference: patent publication US20020165267A1 (priority 2001, published 2002)

How the values were obtained:
[1] = tested on: B. mycoides, B. thuringiensis, and B. subtilis; assay type: cell-based
[2] = humans; set by the FDA; cited from earlier work
[3] = tested on: Bacillus thuringiensis ATCC55055; Bacillus subtilis 1270; test: Agar diffusion test, clear zones of growth inhibition around wells; assay type: cell-based; details: Phloxine B 100 μg/ml; 50 μl per well; 37° C., 16 hours
Method: Sensitivity of bacteria to the commercially available Phloxine B measured by agar diffusion test. Principle of this microbiological assay: The bacteria were grown on Brain Heart Infusion (BHI) broth. Growth was analyzed by measuring turbidity with a spectrophotometer. During the logarithmic phase (OD of 0 3 at 600 nm), 200 μl of the bacterial culture was spread over the surface of an agar plate with a bent glass rod. Fifty μl of various concentrations of Phloxine B (200, 100, 50, 25, and 12.5 μg/ml diluted in the BHI broth) were added to the wells. The plate was then transferred to an incubator at 37° C. the appearance of clear zones around the wells after 16 hours, indicating inhibition of bacterial growth, was noted.

2′,4′,5′,7′-tetrachlorofluorecein disodium salt [Phloxine B]
reduction of the number of Colony-Forming Units ([1]; 100 μg/ml, printed also as factor of 100): more than two logs
inhibition of bacterial growth ([1]; 100, 75, 50, 25 μg/ml added in logarithmic growth phase, BHI broth): dose-dependent manner
antibiotic activity on bacteria ([1]; B. mycoides, B. thuringiensis, B. subtilis): very good antibiotic activity
decrease of bacterial count ([1]; dye added at 100 μg/ml, in minutes): 3 logs
acceptable daily intake (ADI) [2]: 1.25 mg/kg
size of clear zones compared with chloramphenicol [3]: half the inhibition zones observed with chloramphenicol at 200 μg/ml
